In patent US9737525B2, “Small molecule activators of NRF2 pathway” (The General Hospital Corporation, priority 2013, dated 2017):

Tests used:
[1] = tested on: NRF2-target proteins NQO1 and GCLM; experiment: NQO1 and GCLM proteins in wild type mouse cortical neurons (immunoblotting); format: cell-based; conditions: wild type mouse cortical neurons (6 DIV), 24 hr
Method: To assess protein levels, cell extracts were prepared from cells washed with PBS and lysed with buffer containing 2% SDS, Complete EDTA-free Protease Inhibitor Cocktail (Roche) and 1 mM phenylmethylsulfonyl fluoride. To prepare brain extracts for analysis, frozen mouse cortical tissues were homogenized in PBS containing protease inhibitors with an Kontes Pellet Pestle (Kimble/Kontes). They were later sonicated and lysed overnight at 4° C. in 2× volume of lysis buffer containing 2% SDS and protease inhibitors. Protein concentrations in ST14A cell extracts and homogenized cortical tissues were evaluated using a BCA analysis kit and normalized. Samples were prepared in a SDS buffer containing DTT and separated on bis-acrylamide protein gels via electrophoresis and transferred onto a 0.2 μm PVDF membrane). Membranes were probed for NQO1 (Sigma N5288, 1:1,000), GCLM, (Abcam ab126704, 1:800), SIRT2 (Sigma S8447, 1:2,500), histone H3 (Cell Signaling 4499, 1:2,000), acetylated H3 (K56) (Millipore 04-1135, 1:500), TNFα (Abcam ab1793, 1:1,500), GADPH (Millipore MAB374, 1:10,000), actin (Sigma A2066, 1:1250), α-tubulin (Sigma T6074, 1:20,000), and acetylated α-tubulin (Sigma T6793, 1:2,500) overnight in 5% milk in PBST at 4° C. on a rocker. Membranes were thrice washed in PBST for 15 min on a shaker and incubated in either an anti-rabbit-HRP (Bio-Rad 170-5046, 1:10,000) or anti-mouse-HRP (Sigma A3682, 1:4,000) secondary solution as appropriate in 3% milk in PBST for 1 hr at room temperature on a rocker. After four washes of 15 min in PBST on a shaker, blots were visualized using SuperSignal West Pico Chemiluminescent Substrate (Pierce 34080) or SuperSignal West Dura Extended Duration Substrate (Thermo 34075) and exposed on Scientific Imaging Film (Kodak 864 6770).
Dose-response induction of NRF2-target proteins NQO1 and GCLM in wild type mouse cortical neurons (6 DIV) treated with MIND4 and MIND4-17 for 24 hr was consistent with the compound effects on ARE-dependent gene transcription (FIG. 24E).

[2] = tested on: primary cortical neurons expressing 140Q full-length mutant huntingtin; experiment: Neuronal viability assay (MTT), wild type and HD primary cortical neurons; format: cell-based, mouse; conditions: for Cytotoxicity in primary neurons: 0.5 μM and higher
Method: Embryonic tissue from wild type and 140Q mouse brains (E15-E17 days into pregnancy) was used to isolate and plate cortical neurons as described (Valencia et al., 2013). Neurons were plated at 8×10^5 cell/ml in a 24-well plate supplemented with 25 μM of L-glutamate and 10 μM of 2-β-mercapto-ethanol (Gibco). Plates were previously coated with poly-L-lysine (30-70 kDa, SIGMA) in borate buffer at pH 8.0 and coated again using DMEM/F12+FBS 10% for 2 hours prior to plating. After 3 days in culture, neurons were treated with 10 μM of β-D-cytosine arabinofurinoside for 24 hours to prevent the proliferation of non-neuronal cells.
Neurons were supplemented with MIND4 at different concentrations 0, 0.1, 0.25 and 0.5 μM at days in vitro 4, 6 and 8 (FIG. 3A). […] To maintain drug concentrations, half of the culture media was replenished with fresh media at each time point and MIND4 treatment doses were adjusted accordingly. Cell viability was measured at DIV 10 as previously described based on the ability of viable neurons to transformed MTT (3-(4,5-Dimethylthiazol-2-yl)-2,5-diphenyltetrazolium bromide) into formazan blue crystals (Valencia et al., 2013). Neurons were incubated with 0.5 mg/ml of MTT for 15 minutes, media was then discarded and formazan blue crystals were dissolved in DMSO 100% and read at 540 nm in a Vector plate reader. Results are expressed as Mean±Standard deviation absorbance units at 540 nm (AU). P values were obtained using a Student's t-test from an N=6 wells per condition for treated wild type and HD neurons.
Cell survival was measured as MTT transformation at 10 days in vitro (DIV). Neurons were treated three times with the compounds at 4, 6 and 8 DIV at the indicated concentrations. Two independent experiments were performed with a total of 13 embryos per genotype, 6 WT and 7 HD respectively; 6 wells were used for each experimental condition (compound dose).

[3] = tested on: Nrf2-responsive proteins NQO1 and GCLM; experiment: NRF2 responses in wild type and mutant SOD1 (G93A) primary astroglia; format: cell-based; conditions: wild type and mutant SOD1 (G93A) mouse primary astroglia
Excerpt: Primary glia was derived from wild type and mutant SOD1 (G93A) mice and treated with MIND4 and MIND4-17 at indicated doses. The expression NRF2 responsive NQO1 and GCLM proteins were detected by immunochemistry. […] Importantly, compounds had no effects on human mutant SOD1 transgene, expressing in mice from human promoter.

[4] = 0.25 μM, treated at 4, 6 and 8 DIV, MTT at 10 DIV

| Structure (SMILES) | Expression of NQO1 protein [1] | Survival of HD neurons ([2]; 0.1 μM) | Survival of HD neurons ([2]; 0.1 μM and 0.25 μM, treated at DIV 4, 6, 8, MTT at DIV 10) | Survival of HD neurons [2, 4] | Cytotoxicity in primary neurons [2] | Effect on control cortical neurons from wild type mice ([2]; 7 days of treatment) | Induction of Nrf2-responsive proteins NQO1 and GCLM [3] | GCLM expression [1] |
| --- | --- | --- | --- | --- | --- | --- | --- | --- |
| O=[N+]([O-])c1ccc(Sc2nnc(COc3ccccc3)n2-c2ccccc2)c2ncccc12 [MIND4, 5-nitro-8-{[5-(phenoxymethyl)-4-phenyl-4H-1,2,4-triazol-3-yl]thio}quinoline] | increased the expression of NQO1 protein to the same extent | partially improved survival | improved survival of HD neurons at both doses | enhanced survival of HD neurons | cytotoxic | No effects | dose-dependent induction |  |
| O=[N+]([O-])c1ccc(Sc2nnc(COc3ccccc3)n2-c2ccccc2)nc1 [MIND4-17] | increased the expression of NQO1 protein to the same extent |  |  | enhanced survival of HD neurons | cytotoxic |  | dose-dependent induction | more potent inducer of GCLM expression |
